Data set [1] has as its target T1, human CAT2B (SLC7A2B) (Homo sapiens, UniProt P52569).
T1 construct: expressed in transfected cells
As to the kind of experiment: Inhibition of CAT2B-mediated substrate uptake in HEK CAT2B cells. Type of data set: cell-based. On the procedure:
(§1) Cell lines and basic cell culture conditions have previously been described, [24]. The original choice of human embryonic kidney cells (HEK293) cells for transfection with CAT1-, CAT2A- or CAT2B- was based on their reliable growth and well established propensity for transfection and cellular uptake experiments. In brief, uptake assays were performed using [^3H]-labeled substrate and human embryonic kidney (HEK293) cells stably overexpressing the empty vector only (HEK VCG418 and HEK VChygro, depending on selection conditions) or human CAT1 (HEK CAT1, gene: SLC7A1, NM_003045.4), CAT2A (HEK CAT2A, gene: SLC7A2A, NM_003046.5) or CAT2B (HEK CAT2B, SLC7A2B, NM_001008539.3). The cells were cultured in minimal essential medium containing 10% heat-inactivated fetal bovine serum, 100 U/l penicillin, 100 μg/ml streptomycin, and either G418 (800 µg/ml) or hygromycin B (260 µg/ml) at 37 °C and 5% CO2 with subculture as required. Trypsin (0.05%)-EDTA (0.02%) solution was used to detach cells. All cell culture media supplements were obtained from Invitrogen GmbH (Karlsruhe, Germany).
(§2) The transport assays were performed as previously described with minor modifications, [24]. Cells were seeded into poly-D-lysine-coated 12-well plates. Sodium butyrate (10 mmol/l) was added after 24 h of culture for 24 h to enhance CAT1, CAT2A or CAT2B protein expression. […] In order to identify the period of linear L-homoarginine uptake time dependence was assessed. Cells were incubated with the transport buffer containing 100 μmol/L L-homoarginine at 37 °C for 1, 2.5, 5, 10 and 30 min. For determination of kinetic parameters of CAT-mediated L-homoarginine transport increasing L-homoarginine concentrations and an incubation time of 2.5 min were used.
(§3) After cooling to 0 °C the cells were washed three times with ice-cold transport buffer and lysed with 0.2% SDS. The intracellular accumulation of radioactivity was determined by liquid scintillation counting (TriCarb 2800; PerkinElmer Life and Analytical Sciences, Inc.) after adding 4 ml of scintillation solution (Ultima Gold XR; PerkinElmer Life and Analytical Sciences, Inc., Rodgau-Jügesheim, Germany). A bicinchoninic acid assay was used to assess the protein concentrations. […]
(§4) Statistical analysis was performed using GraphPad Prism 5 (version 5.01, 2007, GraphPad Software, San Diego, CA, USA). Net transport data were calculated as the difference of uptake from cells transfected with the respective CAT transporter and the corresponding empty control vector. […] KM-values for the uptake transport were calculated using Michaelis–Menten enzyme kinetics. The corresponding IC50 values for inhibition were calculated by fitting the data to a sigmoid dose–response regression curve. […]

For data set [2], the target named is T2, human CAT1 (SLC7A1) (Homo sapiens, UniProt P30825).
T2 construct: expressed in transfected cells
T2 sequence (P30825 whole entry): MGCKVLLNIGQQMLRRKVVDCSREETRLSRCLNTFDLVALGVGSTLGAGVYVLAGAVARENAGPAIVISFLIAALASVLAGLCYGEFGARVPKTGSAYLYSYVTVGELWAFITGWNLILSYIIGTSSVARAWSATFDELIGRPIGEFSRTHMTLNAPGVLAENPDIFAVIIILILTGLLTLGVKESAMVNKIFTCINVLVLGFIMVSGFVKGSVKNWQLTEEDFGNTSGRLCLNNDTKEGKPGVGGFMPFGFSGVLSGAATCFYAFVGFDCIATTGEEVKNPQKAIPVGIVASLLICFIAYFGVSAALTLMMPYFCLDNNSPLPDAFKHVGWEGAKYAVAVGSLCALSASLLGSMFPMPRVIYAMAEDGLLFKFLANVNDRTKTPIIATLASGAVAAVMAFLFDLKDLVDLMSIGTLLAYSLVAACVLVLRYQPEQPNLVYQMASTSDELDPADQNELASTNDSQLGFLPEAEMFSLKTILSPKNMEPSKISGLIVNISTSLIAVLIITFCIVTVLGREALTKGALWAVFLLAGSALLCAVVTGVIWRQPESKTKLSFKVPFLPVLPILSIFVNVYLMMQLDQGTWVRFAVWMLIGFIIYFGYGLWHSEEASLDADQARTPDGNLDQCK
Put plainly: Inhibition of CAT1-mediated substrate uptake in HEK CAT1 cells. Type of data set: cell-based. The protocol: as §1, §2, §3, §4

Data set [3] has as its target T3, human CAT2A (SLC7A2A) (Homo sapiens, UniProt P52569).
T3 construct: expressed in transfected cells
As to the kind of experiment: Inhibition of CAT2A-mediated substrate uptake in HEK CAT2A cells. Type of data set: cell-based. The note with it: for inhibition of CAT2A-mediated transport of L-homoarginine: substrate L-homoarginine 100 µmol/l, inhibitor 1-10000 µmol/l, IC50 not calculable. The protocol: as §1, with “All cell culture media supplements were obtained from Invitrogen GmbH (Karlsruhe, Germany).” left out
The transport assays were performed as previously described with minor modifications, [24]. […] In order to identify the period of linear L-homoarginine uptake time dependence was assessed. […]
After cooling to 0 °C the cells were washed three times with ice-cold transport buffer and lysed with 0.2% SDS. The intracellular accumulation of radioactivity was determined by liquid scintillation counting (TriCarb 2800; PerkinElmer Life and Analytical Sciences, Inc.) after adding 4 ml of scintillation solution (Ultima Gold XR; PerkinElmer Life and Analytical Sciences, Inc., Rodgau-Jügesheim, Germany). […]
as §4

Another data set deals with fibroblasts. The arrangement: method as in PMID 7040384. The note with it: read-out: KM for uptake of L-homoarginine by cells; cited from earlier work.
Data set [4] has as its target T2, human CAT1 (SLC7A1). Put plainly: CAT1-mediated uptake of [3H]-L-homoarginine in HEK293 cells overexpressing CAT1. Type of data set: cell-based. The protocol: as §1
(§5) The transport assays were performed as previously described with minor modifications, [24]. Cells were seeded into poly-D-lysine-coated 12-well plates. Sodium butyrate (10 mmol/l) was added after 24 h of culture for 24 h to enhance CAT1, CAT2A or CAT2B protein expression. […] In order to identify the period of linear L-homoarginine uptake time dependence was assessed. Cells were incubated with the transport buffer containing 100 μmol/L L-homoarginine at 37 °C for 1, 2.5, 5, 10 and 30 min. […]
as §4

Data set [5] addresses T3, human CAT2A (SLC7A2A). As to the kind of experiment: CAT2A-mediated uptake of [3H]-L-homoarginine in HEK293 cells overexpressing CAT2A. Type of data set: cell-based. On the procedure:
as §1, §5, §4

Details of data set [6]: method as in PMID 27434056. The note with it: healthy volunteers, augmented from 2.9 µmol/l; cited from earlier work.
The subject of a further data set is rat hepatocytes. On the set-up: method as in PMID 7068644. To be noted: read-out: KM for uptake of L-homoarginine by cells; cited from earlier work.
Data set [7] addresses T1, human CAT2B (SLC7A2B). Put plainly: CAT2B-mediated uptake of [3H]-L-homoarginine in HEK293 cells overexpressing CAT2B. Type of data set: cell-based. On the procedure: as §1, §5, §4
[8] abbreviates: substrate L-homoarginine 100 µmol/l, inhibitor 1-10000 µmol/l, read-out: IC50 for inhibition of CAT2B-mediated uptake of L-homoarginine.
The mark [9] stands for this setting: net uptake, 2.5 min incubation, 37 °C.

Consider three compounds from publication PMC5500509, “The prognostic biomarker L-homoarginine is a substrate of the cationic amino acid transporters CAT1, CAT2A and CAT2B” (Scientific Reports, 2017).

Structures are written as SMILES. Read-outs that look alike come from different tables or passages of the source. Bounds are passed on as bounds.

T1 sequence (P52569 whole entry): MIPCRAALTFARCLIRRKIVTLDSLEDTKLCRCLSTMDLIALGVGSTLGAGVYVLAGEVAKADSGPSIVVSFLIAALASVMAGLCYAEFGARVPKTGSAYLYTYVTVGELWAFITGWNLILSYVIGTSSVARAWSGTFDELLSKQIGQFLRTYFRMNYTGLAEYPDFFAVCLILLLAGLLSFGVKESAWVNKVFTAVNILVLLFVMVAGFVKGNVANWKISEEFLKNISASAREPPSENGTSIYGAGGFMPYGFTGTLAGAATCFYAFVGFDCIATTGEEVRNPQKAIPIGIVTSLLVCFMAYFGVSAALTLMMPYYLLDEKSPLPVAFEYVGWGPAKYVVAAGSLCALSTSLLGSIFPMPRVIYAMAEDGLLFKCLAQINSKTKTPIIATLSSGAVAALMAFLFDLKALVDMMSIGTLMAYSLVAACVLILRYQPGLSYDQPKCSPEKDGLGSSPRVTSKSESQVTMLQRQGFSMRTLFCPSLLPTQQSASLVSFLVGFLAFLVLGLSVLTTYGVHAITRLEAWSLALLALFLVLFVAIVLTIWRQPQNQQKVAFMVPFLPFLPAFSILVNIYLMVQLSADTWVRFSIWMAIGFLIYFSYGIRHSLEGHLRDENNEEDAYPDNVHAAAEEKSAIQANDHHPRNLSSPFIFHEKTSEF
T3 sequence (P52569 1-697 isoform P52569-2): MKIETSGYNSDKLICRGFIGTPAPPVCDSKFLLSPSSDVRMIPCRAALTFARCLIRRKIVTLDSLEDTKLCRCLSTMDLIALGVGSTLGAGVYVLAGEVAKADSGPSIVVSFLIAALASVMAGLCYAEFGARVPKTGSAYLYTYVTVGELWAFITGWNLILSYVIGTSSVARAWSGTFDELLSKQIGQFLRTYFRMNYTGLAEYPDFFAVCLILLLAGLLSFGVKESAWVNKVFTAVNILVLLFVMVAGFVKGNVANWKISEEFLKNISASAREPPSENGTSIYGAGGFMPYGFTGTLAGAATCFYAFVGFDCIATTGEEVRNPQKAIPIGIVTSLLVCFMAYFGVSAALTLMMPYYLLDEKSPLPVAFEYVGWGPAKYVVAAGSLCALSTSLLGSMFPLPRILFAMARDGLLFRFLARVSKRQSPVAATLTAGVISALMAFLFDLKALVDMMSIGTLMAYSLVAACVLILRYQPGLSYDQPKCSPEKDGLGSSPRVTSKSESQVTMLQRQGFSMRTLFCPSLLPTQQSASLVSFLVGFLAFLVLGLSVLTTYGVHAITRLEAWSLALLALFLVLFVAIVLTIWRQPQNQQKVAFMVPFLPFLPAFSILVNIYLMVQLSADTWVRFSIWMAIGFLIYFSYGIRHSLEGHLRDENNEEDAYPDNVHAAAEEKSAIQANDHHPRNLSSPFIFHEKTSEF

Regarding `CN(C)C(N)=NCCC[C@H](N)C(=O)O` [ADMA, asymmetric dimethylarginine, reference compound], the IC50 was 608 µM on human CAT2B (SLC7A2B) [1] (setting [8]) and 379 µM on human CAT1 (SLC7A1) [2] (substrate L-homoarginine 100 µmol/l, inhibitor 1-10000 µmol/l, read-out: IC50 for inhibition of CAT1-mediated uptake of L-homoarginine). Moreover, the “inhibition of CAT2A-mediated transport of L-homoarginine” value on human CAT2A (SLC7A2A) [3] is listed as “could only be inhibited by very high (10000 µmol/l) concentrations”.
In the case of `N=C(N)NCCC[C@H](N)C(=O)O` [L-arginine, reference compound], the 50% inhibitory concentration (IC50) on human CAT2B (SLC7A2B) [1] (setting [8]) turned out to be 1440 µM. Moreover, on human CAT1 (SLC7A1) [2] (substrate L-homoarginine 2 µmol/l, inhibitor L-arginine 100 µmol/l, p < 0.01), the “inhibition of CAT1-mediated net uptake of L-homoarginine at physiological concentrations” value is “significantly inhibited”. Also, the “inhibition of CAT2A-mediated transport of L-homoarginine” value at human CAT2A (SLC7A2A) [3] was “could only be inhibited by very high (10000 µmol/l) concentrations”.
As for `NC(N)=NCCCC[C@H](N)C(=O)O` [L-homoarginine], the Km in the data set on fibroblasts is 40 µM; at human CAT1 (SLC7A1) [4] (net uptake, 2.5 min incubation, 37 °C, read-out: apparent KM of CAT1-mediated uptake), 175 ± 7 µM; with rat hepatocytes, 300 µM; on human CAT2B (SLC7A2B) [7] (net uptake, 2.5 min incubation, 37 °C, read-out: apparent KM of CAT2B-mediated uptake), 523 ± 35 µM. Also, the “cellular uptake of L-homoarginine vs control cells” value on human CAT1 (SLC7A1) [4] (L-homoarginine 100 µmol/l, HEK CAT1 vs HEK VCG418, p < 0.001) is 7 fold; at human CAT2A (SLC7A2A) [5] (L-homoarginine 100 µmol/l, HEK CAT2A vs control cells, p < 0.001), 1.6 fold; on human CAT2B (SLC7A2B) [7] (L-homoarginine 100 µmol/l, HEK CAT2B vs control cells, p < 0.001) it was 2.2 fold. Further, on human CAT1 (SLC7A1) [4] (setting [9]), the “apparent Vmax of CAT1-mediated uptake” value is given as 12 ± 0.1 nmol × mg protein^−1 × min^−1. In addition, the “saturation of CAT2A-mediated uptake” value on human CAT2A (SLC7A2A) [5] (increasing L-homoarginine concentrations) is recorded as “could not be reached”. Moreover, the “Vmax of CAT2A-mediated uptake” value on human CAT2A (SLC7A2A) [5] (net uptake, 2.5 min, 37 °C, only estimated, limited by maximally attainable L-homoarginine concentration) is on record as > 20 nmol × mg protein^−1 × min^−1. In addition, the “mean plasma concentration after supplementation” value in data set [6] was 17.3 µM. The IC50 at human CAT2B (SLC7A2B) [1] (read-out: IC50 for inhibition of CAT2B-mediated uptake of L-arginine, substrate L-arginine 1000 µmol/l, inhibitor 1–100000 µmol/l) was 1220 µM; at human CAT2B (SLC7A2B) [1] (substrate ADMA 100 µmol/l, inhibitor 1–100000 µmol/l, read-out: IC50 for inhibition of CAT2B-mediated uptake of ADMA) it was 1860 µM; on human CAT1 (SLC7A1) [2] (read-out: IC50 for inhibition of CAT1-mediated uptake of L-arginine, substrate L-arginine 1000 µmol/l, inhibitor 1–100000 µmol/l) it was 1320 µM; on human CAT1 (SLC7A1) [2] (substrate ADMA 100 µmol/l, inhibitor 1–100000 µmol/l, read-out: IC50 for inhibition of CAT1-mediated uptake of ADMA), 642 µM; on human CAT2A (SLC7A2A) [3] (substrate ADMA 100 µmol/l, inhibitor 1–100000 µmol/l), 9240 µM. Further, on human CAT2B (SLC7A2B) [7] (setting [9]), the “apparent Vmax of CAT2B-mediated uptake” value was 11 ± 0.2 nmol × mg protein^−1 × min^−1.
